Reference: US20070093539A1, “N-hydroxy-4-(3-pheyl-5-methyl-isoxazole-4-yl)-benzenesulfonate solvates” (priority 2003, published 2007)

Tests used:
[1] = tested on: carrageenan induced inflammatory hyperalgesia; test: Carrageenan induced inflammatory hyperalgesia (Randall-Selitto), acute model; type: in vivo, male SPRD rats; conditions: Acut model, 10 mg/kg p.o.
Protocol: Edema was induced by injection of Carrageenan (CA) into plantar surface of right hind paw. Male SPRD rats (weighing 140-190 g) were used n=6-8/group). Then the mechanical pain threshold of the inflamed hind paw was determined with an analgesimeter ((Ugo Basile, type: 37215).
This assay monitors the decrease of the pain threshold, and the time depending changing of the pain by mechanical pain stimulus. Analgesics can increase the pain threshold of the inflamed hinds and this effect is in terms of percentage of reversal.
Untreated right hind paw was compressed with a progressively increasing pressure. The pressure was recorded (in grams) when the animal first vocalized or made a vigorous attempt to remove the paw. It was determined to baseline threshold of the untreated paw. (average: 80-110 g). After it the animals were treated with carrageenan. After the treatment the edema and the threshold were checked in a given times. […] (Average of inflammation induced pain threshold was 20-25 g, this means 65-80% decrease related to the baseline.)
1 hour after the CA injection (100 μl of 2% solution) the animals were treated with test compounds and valdecoxib (10-10 mg/kg p.o.). […]
The chronic phase of the inflammantion and the decreasing of the threshold were induced by higher dose of CA. Inflammation induced threshold decreasing was measured 24 hours after the CA injection (150 μl of 2% solution). ) After it the animals were treated with test compounds and valdecoxib (30-30 mg/kg p.o.). Change in the threshold was checked at 1 h, 2 h, and 3 h following drug administration. In both model used control groups were treated orally only with solvents at the time of treatments. In both protocol the effects of the test compounds were calculated in percentage reversal of mechanical hiperalgesia: [formula] • T3h: In acute model, the threshold in the control group at 3 h after the CA injection (in gram) • T24h: In chronic model, the threshold in the control group at 24 h after the CA injection (in gram) • T0h: The threshold before the CA injection (in gram) • TXh In acute model, at 3h after the CA injection • TXh=In chronic model, at 25 h, 26 h, 27 h after the CA injection

[2] = tested on: inflammatory mechanical allodynia induced by carrageenan; test: Carrageenan-induced inflammatory mechanical allodynia (von Frey); type: in vivo, male Sprague-Dawley rats; conditions: 30 mg/kg p.o.
Protocol: The-threshold of pain of the animals was measured by von Frey apparatus (IITC, type: 1601 C). […] The values were registered in the times of the pick up or raises. During each measurment the threshold was determined at least thrice and the avarage was calculated from the peak values.
Male Sprague-Dawley rats (weighing 250-300 g) were used (n=5-6/group). 100 μl of saline solution of carrageenant (CA) was injected to the middle of the paw. The stimulus threshold was measured after it, and the treatment was completed with gastro-probe per os. The effects of the materials were measured in 30, 60, 90, 120 minutes after the treatments. The effects were compared for control group treatment with vehicle (solution of 2% Tween-80).
The effect was calculated as follows: [formula] where tx=30, 60, 90, 120 min
In the acute pain model the analgesic effects of the valdecoxib and compound of example 1 were considerable with dose of 30 mg/kg p.o. once.

[3] = biological target: T1, sheep COX-1 (Ovis aries, UniProt P05979); test: spectrophotometric TMPD assay, COX-1; type: biochemical; conditions: 15 min preincubation at 25° C., read-out: Sheep COX-1 IC50 (μM) ± S.E.M.
T1 construct: purchased Cayman Chemical, Ann Arbor, USA 60100
T1 sequence (P05979 25-600): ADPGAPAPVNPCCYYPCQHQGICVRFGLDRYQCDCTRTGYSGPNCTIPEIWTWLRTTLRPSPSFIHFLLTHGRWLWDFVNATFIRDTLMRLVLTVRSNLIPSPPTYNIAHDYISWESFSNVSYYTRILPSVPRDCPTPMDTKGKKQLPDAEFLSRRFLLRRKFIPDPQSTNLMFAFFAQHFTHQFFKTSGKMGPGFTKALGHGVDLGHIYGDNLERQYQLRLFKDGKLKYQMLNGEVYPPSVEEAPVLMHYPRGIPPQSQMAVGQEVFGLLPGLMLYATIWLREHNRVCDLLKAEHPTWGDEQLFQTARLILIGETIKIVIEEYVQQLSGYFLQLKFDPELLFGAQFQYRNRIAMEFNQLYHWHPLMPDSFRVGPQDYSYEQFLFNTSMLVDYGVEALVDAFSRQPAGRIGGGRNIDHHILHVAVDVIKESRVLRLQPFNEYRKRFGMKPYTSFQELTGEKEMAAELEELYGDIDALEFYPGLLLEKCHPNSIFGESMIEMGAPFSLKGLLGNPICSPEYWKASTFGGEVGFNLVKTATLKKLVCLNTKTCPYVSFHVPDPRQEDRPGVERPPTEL
Protocol: The Human recombinant COX-2 and sheep COX-1 activity were determined by spectrophotometric TMPD assay (K. Gierse, S. D. Hauser, D. P. Creely, C. M. Koboldt, S. H. Rangwala, P. C. Isakson and K. Seibert: Expression and selective inhibition of the constitutive and inducible forms of human cyclo-oxygenase Biochem. J. 305: 479-484 (1995)).
The Human recombinant COX-2 and sheep COX-1 activity were measured by spectrophotometric assay based on oxidation of N,N,N′,N′,-tetramethyl-p-phenylenediamine (TMPD). During the reduction of the prostaglandine G2 (PGG2) to prostaglandine endoperoxid H2 (PGH2), the TMPD is being oxidated to a colour product, which can be measured by spectrophotometer at 610 nm.
4 μl of solution of inhibitors in different concentrations was added to the 156 μl of reaction mixture (100 mM sodium phosphate buffer, pH:6.5, 1 μM hematin, 1 mg/ml gelatine). Afterwards 20 μl solution of 50 unit human recombinant COX-2 enzym or 20 μl of 50 unit sheep COX-1 enzym (Cayman Chemical, Ann Arbor, USA, cat no.: 60122/COX-2/, cat. no.: 60100/COX-1/) was added. The incubation mixture: was preincubated for 15 minutes at 25° C. in a spectrophotometric 96-well plate reader (Labsystem iEMS Reader MF). Following this, the mixture of 20 μl 1 mM arachidonic acid and 1 mM TMPD solution were added. It was shaken for 10 second and the absorbance was measured at 610 nm.

N-hydroxi-4-(3-phenyl-5-methyl-isoxazole-4-yl)-benzenesulfonamide monohydrate [example 1]
Analgesic effect in % after p.o. treatment ([1]; 2 hours): 64.6%
Analgesic effect in % after p.o. treatment ([1]; 3 hours): 40.7%
Analgesic effect in % after p.o. treatment ([1]; 4 hours): 12.3%
Analgesic effect in % after p.o. treatment ([2]; 30 min.): 61.6%
Analgesic effect in % after p.o. treatment ([2]; 1 hour): 57.1%
Analgesic effect in % after p.o. treatment ([2]; 1.5 hour): 44.5%
Analgesic effect in % after p.o. treatment ([2]; 2 hours): 41.5%
IC50 [3]: 101 ± 12.5 µM
